Data as given in US5416081A, “Cephalosporin compounds” (Lucky Limited, priority 1992, dated 1995).
Converted amounts (≈) assume the structure as drawn. Read-outs that look alike come from different tables or passages of the source.

Columns and labels:
Type in all cases: cell-based
[1] = tested on: S. aureus/6538pA; experiment: MIC against standard strain by two-fold agar dilution, S. aureus/6538pA; conditions: Staphylococcus aureus
Experimental: (§1) These MIC values were taken by employing a two-fold dilution method: that is, two-fold serial dilutions of each of the test compounds were made and dispersed in a Muller-Hinton agar medium; 2 μl of the standard test strain which had the 10^7 CFU(Colony Forming Unit) per ml was inoculated on the medium; and these were incubated at 37° C. for 20 hours.

[2] = tested on: S. aureus/giorigio; experiment: MIC against standard strain by two-fold agar dilution, S. aureus/giorigio; conditions: Staphylococcus aureus
Experimental: as §1

[3] = tested on: S. aureus/77; experiment: MIC against standard strain by two-fold agar dilution, S. aureus/77; conditions: Staphylococcus aureus
Experimental: as §1

[4] = tested on: E. coli/10536; experiment: MIC against standard strain by two-fold agar dilution, E. coli/10536; conditions: Escherichia coli
Experimental: as §1

[5] = tested on: E. coli/3190Y; experiment: MIC against standard strain by two-fold agar dilution, E. coli/3190Y; conditions: Escherichia coli
Experimental: as §1

[6] = tested on: E. coli TEM1/1193E; experiment: MIC against standard strain by two-fold agar dilution, E. coli TEM1/1193E; conditions: Escherichia coli, 20 h
Experimental: as §1

[7] = tested on: E. coli TEM5/3739E; experiment: MIC against standard strain by two-fold agar dilution, E. coli TEM5/3739E; conditions: Escherichia coli, 20 h
Experimental: as §1

[8] = tested on: E. coli TEM9/2639E; experiment: MIC against standard strain by two-fold agar dilution, E. coli TEM9/2639E; conditions: Escherichia coli, 20 h
Experimental: as §1

[9] = tested on: P. aeruginosa/1912E; experiment: MIC against standard strain by two-fold agar dilution, P. aeruginosa/1912E; conditions: Pseudomonas aeruginosa
Experimental: as §1

[10] = tested on: P. aeruginosa/10145; experiment: MIC against standard strain by two-fold agar dilution, P. aeruginosa/10145; conditions: Pseudomonas aeruginosa
Experimental: as §1

[11] = tested on: P. aeruginosa/6065Y; experiment: MIC against standard strain by two-fold agar dilution, P. aeruginosa/6065Y; conditions: Pseudomonas aeruginosa
Experimental: as §1

[12] = tested on: A. calcoaceticus /15473A; experiment: MIC against standard strain by two-fold agar dilution, A. calcoaceticus /15473A; conditions: Acinetobacter calcoaceticus
Experimental: as §1

[13] = tested on: E. cloacae/1194E; experiment: MIC against standard strain by two-fold agar dilution, E. cloacae/1194E; conditions: Enterobacter cloacae
Experimental: as §1

[14] = tested on: K. aerogenes/1776E; experiment: MIC against standard strain by two-fold agar dilution, K. aerogenes/1776E; conditions: Klebsiella aerogenes
Experimental: as §1

[15] = tested on: S. marcescens/1826E; experiment: MIC against standard strain by two-fold agar dilution, S. marcescens/1826E; conditions: Serratia marcescens
Experimental: as §1

[16] = tested on: S. typhimunium/14028A; experiment: MIC against standard strain by two-fold agar dilution, S. typhimunium/14028A
Experimental: as §1

[17] = S. aureus/6538pA, Muller-Hinton agar, 37° C., 20 hours, read-out: MIC
[18] = S. aureus/giorigio, Muller-Hinton agar, 37° C., 20 hours, read-out: MIC
[19] = S. aureus/77, Muller-Hinton agar, 37° C., 20 hours, read-out: MIC
[20] = E. coli/10536, Muller-Hinton agar, 37° C., 20 hours, read-out: MIC
[21] = E. coli/3190Y, Muller-Hinton agar, 37° C., 20 hours, read-out: MIC
[22] = P. aeruginosa/1912E, Muller-Hinton agar, 37° C., 20 hours, read-out: MIC
[23] = P. aeruginosa/10145, Muller-Hinton agar, 37° C., 20 hours, read-out: MIC
[24] = P. aeruginosa/6065Y, Muller-Hinton agar, 37° C., 20 hours, read-out: MIC
[25] = A. calcoaceticus /15473A, Muller-Hinton agar, 37° C., 20 hours, read-out: MIC
[26] = E. cloacae/1194E, Muller-Hinton agar, 37° C., 20 hours, read-out: MIC
[27] = K. aerogenes/1776E, Muller-Hinton agar, 37° C., 20 hours, read-out: MIC
[28] = S. marcescens/1826E, Muller-Hinton agar, 37° C., 20 hours, read-out: MIC
[29] = S. typhimunium/14028A, Muller-Hinton agar, 37° C., 20 hours, read-out: MIC

What does the source list for Nc1nc(/C(=N/OCC(=O)O)C(=O)NC2C(=O)N3C(C(=O)[O-])=C(CSc4nc(N)c5c([n+]4N)CCC5)CSC23)cs1 (stereo not shown) [Compound I-8, 7-[(Z)-2-(2-aminothiazol-4-yl)-2-(1-carboxymeth-1-oxyimino)acetamido]-3-(1,4-diamino-1,5,6,7-tetrahydro-cyclopentapyrimidinium-2-yl)thiomethyl-3-cephem-4-carboxylate]?
MIC [1, 17]: 2 µg/mL (≈ 3.22 µM); MIC [2, 18]: 2 µg/mL (≈ 3.22 µM); MIC [3, 19]: 4 µg/mL (≈ 6.43 µM); MIC [4, 20]: 0.016 µg/mL (≈ 0.0257 µM); MIC [5, 21]: 0.063 µg/mL (≈ 0.101 µM); MIC [6]: 0.28 µg/mL (≈ 0.45 µM); MIC [7]: 2 µg/mL (≈ 3.22 µM); MIC [8]: 2 µg/mL (≈ 3.22 µM); MIC [9, 22]: 1 µg/mL (≈ 1.61 µM); MIC [10, 23]: 1 µg/mL (≈ 1.61 µM); MIC [11, 24]: 4 µg/mL (≈ 6.43 µM); MIC [12, 25]: 4 µg/mL (≈ 6.43 µM); MIC [13, 26]: 8 µg/mL (≈ 12.9 µM); MIC [14, 27]: 0.25 µg/mL (≈ 0.402 µM); MIC [15, 28]: 0.13 µg/mL (≈ 0.209 µM); MIC [16, 29]: 0.25 µg/mL (≈ 0.402 µM)

Which results are given for CC(C)(O/N=C(\C(=O)N[C@@H]1C(=O)N2C(C(=O)[O-])=C(C[n+]3ccccc3)CS[C@H]12)c1csc(N)n1)C(=O)O [ceftazidime, Ceftazidime, reference compound]?
MIC ([1]; 20 h): 16 µg/mL (≈ 29.3 µM); MIC ([2]; 20 h): 4 µg/mL (≈ 7.32 µM); MIC ([3]; 20 h): 32 µg/mL (≈ 58.5 µM); MIC ([4]; 20 h): 0.063 µg/mL (≈ 0.115 µM); MIC ([5]; 20 h): 0.031 µg/mL (≈ 0.0567 µM); MIC [6]: 0.28 µg/mL (≈ 0.512 µM); MIC [7]: 8 µg/mL (≈ 14.6 µM); MIC [8]: > 128 µg/mL; MIC ([9]; 20 h): 1 µg/mL (≈ 1.83 µM); MIC ([10]; 20 h): 2 µg/mL (≈ 3.66 µM); MIC ([11]; 20 h): 32 µg/mL (≈ 58.5 µM); MIC ([12]; 20 h): 2 µg/mL (≈ 3.66 µM); MIC ([13]; 20 h): 64 µg/mL (≈ 117 µM); MIC ([14]; 20 h): 0.25 µg/mL (≈ 0.457 µM); MIC ([15]; 20 h): 0.25 µg/mL (≈ 0.457 µM); MIC ([16]; 20 h): 0.25 µg/mL (≈ 0.457 µM)

How did the MIC [1, 17] turn out when C[C@H](O/N=C(\C(=O)NC1C(=O)N2C(C(=O)[O-])=C(CSc3nc(N)c4c([n+]3C)CCC4)CSC12)c1csc(N)n1)C(=O)O (stereo partly drawn) [I-6(S)] was run?
The MIC was 4 µg/mL (≈ 6.3 µM).

And the MIC [2, 18]?
Its MIC is 2 µg/mL (≈ 3.15 µM).

What about the MIC [3, 19] of the same compound?
Its MIC is 4 µg/mL (≈ 6.3 µM).

And the MIC [4, 20]?
The MIC was 0.016 µg/mL (≈ 0.0252 µM).

What about the MIC [5, 21] of the same compound?
The MIC was 0.063 µg/mL (≈ 0.0993 µM).

What about the MIC [6] of the same compound?
Its MIC is 0.13 µg/mL (≈ 0.205 µM).

What about the MIC [7] of the same compound?
The MIC was 1 µg/mL (≈ 1.58 µM).

And the MIC [8]?
The MIC was 4 µg/mL (≈ 6.3 µM).

What about the MIC [9, 22] of the same compound?
Its MIC is 1 µg/mL (≈ 1.58 µM).

And the MIC [10, 23]?
Its MIC is 2 µg/mL (≈ 3.15 µM).

What about the MIC [11, 24] of the same compound?
Its MIC is 4 µg/mL (≈ 6.3 µM).

And the MIC [12, 25]?
Its MIC is 4 µg/mL (≈ 6.3 µM).

What about the MIC [13, 26] of the same compound?
The MIC was 4 µg/mL (≈ 6.3 µM).

And the MIC [14, 27]?
Its MIC is 0.13 µg/mL (≈ 0.205 µM).

And the MIC [15, 28]?
Its MIC is 0.25 µg/mL (≈ 0.394 µM).

What about the MIC [16, 29] of the same compound?
The MIC was 0.25 µg/mL (≈ 0.394 µM).

Which results are given for C[n+]1c(SCC2=C(C(=O)[O-])N3C(=O)C(NC(=O)/C(=N\OC4(C(=O)O)CCCC4)c4csc(N)n4)C3SC2)nc(N)c2c1CCC2 (stereo not shown) [Compound I-12, 7-[(Z)-2-(2-aminothiazol-4-yl}-2-(1-carboxycyclopent-1-oxyimino)acetamido]-3-(4-amino-1-methyl-1,5,6,7-tetrahydro-cyclopenta-pyrimidinium-2-yl)thiomethyl-3-cephem-4-carboxylate]?
MIC [1, 17]: 2 µg/mL (≈ 2.96 µM); MIC [2, 18]: 2 µg/mL (≈ 2.96 µM); MIC [3, 19]: 8 µg/mL (≈ 11.9 µM); MIC [4, 20]: 0.016 µg/mL (≈ 0.0237 µM); MIC [5, 21]: 0.063 µg/mL (≈ 0.0934 µM); MIC [6]: 0.13 µg/mL (≈ 0.193 µM); MIC [7]: 0.5 µg/mL (≈ 0.741 µM); MIC [8]: 4 µg/mL (≈ 5.93 µM); MIC [9, 22]: 1 µg/mL (≈ 1.48 µM); MIC [10, 23]: 2 µg/mL (≈ 2.96 µM); MIC [11, 24]: 16 µg/mL (≈ 23.7 µM); MIC [12, 25]: 2 µg/mL (≈ 2.96 µM); MIC [13, 26]: 8 µg/mL (≈ 11.9 µM); MIC [14, 27]: 0.13 µg/mL (≈ 0.193 µM); MIC [15, 28]: 0.25 µg/mL (≈ 0.37 µM); MIC [16, 29]: 0.25 µg/mL (≈ 0.37 µM)
